Assay results as given in US9758485B2, “Compounds for controlling arthropods” (priority 2013, dated 2017).

test: logP determination by HPLC on a reversed-phase column (C18), EEC Directive 79/831 Annex V.A8; type: physicochemical; conditions: HPLC on reversed-phase column (C18)

Structure (SMILES)	log P
CN(C(=O)c1cc(-c2cnn(-c3c(I)cc(C(F)(C(F)(F)F)C(F)(F)F)cc3OC(F)(F)F)c2)ccc1Cl)C1CC1 [I-T3-225]	5.2
CCS(=O)(=O)c1cc(C(F)(C(F)(F)F)C(F)(F)F)cc(C)c1-n1cc(-c2ccc(Cl)c(C(=O)NC3CC3)c2)cn1 [I-T3-210]	3.9
CCSc1cc(C(F)(C(F)(F)F)C(F)(F)F)cc(C)c1-n1cc(-c2ccc(Cl)c(C(=O)NC3(C#N)CC3)c2)cn1 [I-T3-202]	4.5
O=C(NC1CC1)c1cc(-c2cnn(-c3c(Cl)cc(C(F)(C(F)(F)F)C(F)(F)F)cc3OC(F)F)c2)ccc1Cl [I-T3-214]	4.3
N#CC1(NC(=O)c2cc(-c3cnn(-c4c(Cl)cc(C(F)(C(F)(F)F)C(F)(F)F)cc4OC(F)F)c3)cnc2Cl)CC1 [I-T3-218]	3.7
N#Cc1cc(C(F)(C(F)(F)F)C(F)(F)F)cc(Cl)c1-n1cc(-c2cnc(Cl)c(C(=O)NC3(C#N)CC3)c2)cn1 [I-T3-207]	3.5
CN(C(=O)c1cc(-c2cnn(-c3c(I)cc(C(F)(C(F)(F)F)C(F)(F)F)cc3C(F)(F)F)c2)ccc1Cl)C1CC1 [I-T3-229]	5.1
N#CC1(NC(=O)c2cc(-c3cnn(-c4c(I)cc(C(F)(C(F)(F)F)C(F)(F)F)cc4C(F)(F)F)c3)ccc2Cl)CC1 [I-T3-228]	4.4
N#Cc1cc(C(F)(C(F)(F)F)C(F)(F)F)cc(Cl)c1-n1cc(-c2cnc(Cl)c(C(=O)NC3CC3)c2)cn1 [I-T3-205]	3.5
N#CC1(NC(=O)c2cc(-c3cnn(-c4c(I)cc(C(F)(C(F)(F)F)C(F)(F)F)cc4OC(F)(F)F)c3)ccc2Cl)CC1 [I-T3-226]	4.6
CCS(=O)(=O)c1cc(C(F)(C(F)(F)F)C(F)(F)F)cc(C)c1-n1cc(-c2ccc(Cl)c(C(=O)NC3(C#N)CC3)c2)cn1 [I-T3-209]	3.8
O=C(NC1CC1)c1cc(-c2cnn(-c3c(F)cc(C(F)(F)F)cc3Cl)c2)ccc1Cl [I-T3-186]	3.6
CN(C(=O)c1cc(-c2cnn(-c3c(Cl)cc(C(O)(C(F)(F)F)C(F)(F)F)cc3Cl)c2)cnc1Cl)C1(C#N)CC1 [I-T3-223]	3.3
CCS(=O)(=O)c1cc(C(F)(C(F)(F)F)C(F)(F)F)cc(S(=O)(=O)CC)c1-n1cc(-c2ccc(Cl)c(C(=O)NC3(C#N)CC3)c2)cn1 [I-T3-198]	3.7
CCS(=O)(=O)c1cc(C(F)(F)F)cc(C#N)c1-n1cc(-c2ccc(Cl)c(C(=O)NC3(C#N)CC3)c2)cn1 [I-T3-190]	2.9
CN(C(=O)c1cc(-c2cnn(-c3c(Cl)cc(C(F)(C(F)(F)F)C(F)(F)F)cc3OC(F)(F)F)c2)cnc1Cl)C1CC1 [I-T3-208]	4.6
O=C(NC1CC1)c1cc(-c2cnn(-c3c(I)cc(C(F)(C(F)(F)F)C(F)(F)F)cc3C(F)(F)F)c2)ccc1Cl [I-T3-227]	4.5
CN(C(=O)c1cc(-c2cnn(-c3c(Cl)cc(C(F)(C(F)(F)F)C(F)(F)F)cc3OC(F)(F)F)c2)ccc1Cl)C1CC1 [I-T3-219]	5.1
CCSc1cc(C(F)(C(F)(F)F)C(F)(F)F)cc(SCC)c1-n1cc(-c2ccc(Cl)c(C(=O)NC3(C#N)CC3)c2)cn1 [I-T3-191]	4.7
CC[S+]([O-])c1cc(C(F)(C(F)(F)F)C(F)(F)F)cc(Cl)c1-n1cc(-c2ccc(Cl)c(C(=O)NC3(C#N)CC3)c2)cn1 (stereo not drawn) [I-T3-195]	3.8
CN(C(=O)c1cc(-c2cnn(-c3c(Cl)cc(C(F)(C(F)(F)F)C(F)(F)F)cc3C#N)c2)cnc1Cl)C1CC1 [I-T3-204]	3.9
N#CC1(NC(=O)c2cc(-c3cnn(-c4c(Cl)cc(C(F)(C(F)(F)F)C(F)(F)F)cc4I)c3)ccc2Cl)CC1 [I-T3-212]	4.3
CCS(=O)(=O)c1cc(C(F)(C(F)(F)F)C(F)(F)F)cc(Cl)c1-n1cc(-c2ccc(Cl)c(C(=O)NC3(C#N)CC3)c2)cn1 [I-T3-201]	4.0
O=C(NC1CC1)c1cc(-c2cnn(-c3c(I)cc(C(F)(C(F)(F)F)C(F)(F)F)cc3OC(F)(F)F)c2)ccc1Cl [I-T3-224]	4.7
CN(C(=O)c1cc(-c2cnn(-c3c(Cl)cc(C(O)(C(F)(F)F)C(F)(F)F)cc3Cl)c2)cnc1Cl)C1CC1 [I-T3-220]	3.4
CCSc1cc(C(F)(C(F)(F)F)C(F)(F)F)cc(C)c1-n1cc(-c2ccc(Cl)c(C(=O)NC3CC3)c2)cn1 [I-T3-203]	4.6
N#CC1(NC(=O)c2cc(-c3cnn(-c4c(F)c(F)c(C(F)(F)F)c(F)c4F)c3)ccc2Cl)CC1 [I-T3-188]	3.4
O=C(NC1CC1)c1cc(-c2cnn(-c3c(Cl)cc(C(F)(C(F)(F)F)C(F)(F)F)cc3C(F)F)c2)ccc1Cl [I-T3-193]	4.4

same assay, conditions: HPLC, reversed-phase C18, acetonitrile/water with formic acid, 55° C.

Structure (SMILES)	logP
Cc1cc(C(F)(C(F)(F)F)C(F)(F)F)cc(C)c1-n1ccc(-c2ccc(Cl)c(C(=O)NC3(C#N)CC3)c2)c1 [I-T46-1]	4.90
CN(C(=O)c1cc(-c2ccn(-c3c(Cl)cc(C(F)(C(F)(F)F)C(F)(F)F)cc3Cl)c2)cnc1Cl)C1CC1 [I-T46-3]	5.0
N#CC1(NC(=O)c2cc(-c3ccn(-c4c(Cl)cc(C(F)(C(F)(F)F)C(F)(F)F)cc4Cl)c3)cnc2Cl)CC1 [I-T46-5]	4.4
O=C(NC1CC1)c1cc(-c2ccn(-c3c(Cl)cc(C(F)(C(F)(F)F)C(F)(F)F)cc3Cl)c2)cnc1Cl [I-T46-4]	4.5

same assay, conditions: HPLC-MS method a), Table I-T3

Structure (SMILES)	logP^a)
Cc1cc(C(F)(C(F)(F)F)C(F)(F)F)cc(C)c1-n1cc(-c2cc(C(=O)NC3CC3)c(Cl)cc2F)cn1 [I-T3-14]	4.5
N#CC1(NC(=O)c2cccc(-c3cnn(-c4c(Cl)cc(C(F)(C(F)(F)F)C(F)(F)F)cc4Cl)c3)c2F)CC1 [I-T3-22]	4.1

same assay, conditions: HPLC-MS, reversed-phase column (C18)

Structure (SMILES)	log P
N#Cc1cc(C(F)(F)F)cc(Cl)c1-n1cc(-c2ccc(Cl)c(C(=O)NC3CC3)c2)cn1 [I-T3-174]	3.1
CC[S+]([O-])c1cc(C(F)(F)F)cc(C#N)c1-n1cc(-c2ccc(Cl)c(C(=O)NC3CC3)c2)cn1 (stereo not drawn) [I-T3-181]	2.7
NC(=S)C1(NC(=O)c2cc(-c3cnn(-c4c(Cl)cc(C(F)(C(F)(F)F)C(F)(F)F)cc4C(F)(F)F)c3)cnc2Cl)CC1 [I-T3-159]	3.8
CSc1cc(C(F)(C(F)(F)F)C(F)(F)F)cnc1-n1cc(-c2ccc(Cl)c(C(=O)NC3(C#N)CC3)c2)cn1 [I-T3-166]	4.3
N#CC1(NC(=O)c2cc(-c3cnn(-c4ncc(C(F)(C(F)(F)F)C(F)(F)F)cc4SCC(F)(F)F)c3)ccc2Cl)CC1 [I-T3-171]	4.5
O=C(NC1CC1)c1cc(-c2cnn(-c3ncc(C(F)(C(F)(F)F)C(F)(F)F)cc3Cl)c2)ccc1Cl [I-T3-152]	4.1
O=C(NC1CC1)c1cccc(-c2cnn(-c3ncc(C(F)(F)F)cc3Cl)c2)c1 [I-T3-122]	3.0
CC[S+]([O-])c1cc(C(F)(C(F)(F)F)C(F)(F)F)cnc1-n1cc(-c2ccc(Cl)c(C(=O)NC3(C#N)CC3)c2)cn1 (stereo not drawn) [I-T3-153]	3.7
CCS(=O)(=O)c1cc(C(F)(F)F)cc(Cl)c1-n1cc(-c2ccc(Cl)c(C(=O)NC3CC3)c2)cn1 [I-T3-178]	3.2
CCSc1cc(C(F)(F)F)cc(Cl)c1-n1cc(-c2ccc(Cl)c(C(=O)NC3(C#N)CC3)c2)cn1 [I-T3-170]	3.7
CCSc1cc(C(F)(F)F)cc(Cl)c1-n1cc(-c2ccc(Cl)c(C(=O)NC3CC3)c2)cn1 [I-T3-172]	3.9
CCS(=O)(=O)c1cc(C(F)(F)F)cc(C#N)c1-n1cc(-c2ccc(Cl)c(C(=O)NC3CC3)c2)cn1 [I-T3-180]	2.8

same assay, conditions: reversed-phase HPLC column (C18), HPLC, reversed-phase C18, acetonitrile/water with formic acid, 55° C.; read-out: logP

Structure (SMILES)	chromatographic logP
CCc1cc(C(F)(C(F)(F)F)C(F)(F)F)cc(Cl)c1N [2-chloro-6-ethyl-4-heptafluoroisopropylaniline]	4.67
FC(F)(F)C(F)(c1cnc(-n2cc(Br)cn2)c(Cl)c1)C(F)(F)F [2-(4-bromo-1H-pyrazol-1-yl)-3-chloro-5-(1,1,1,2,3,3,3-heptafluoropropan-2-yl)pyridine]	4.74
O=C(NC1CC1)c1cc(-c2cnn(-c3ncc(C(F)(C(F)(F)F)C(F)(F)F)cc3Cl)c2)ccc1Cl [2-chloro-5-{1-[3-chloro-5-(1,1,1,2,3,3,3-heptafluoropropan-2-yl)pyridin-2-yl]-1H-pyrazol-4-yl}-N-cyclopropylbenzamide]	4.08
CCSc1cc(C(F)(C(F)(F)F)C(F)(F)F)cnc1-n1cc(-c2ccc(Cl)c(C(=O)NC3CC3)c2)cn1 [I-T3-156, 2-Chloro-N-cyclopropyl-5-{1-[3-(ethylsulphanyl)-5-(1,1,1,2,3,3,3-heptafluoropropan-2-yl)pyridin-2-yl]-1H-pyrazol-4-yl}benzamide]	4.69
CC[S+]([O-])c1cc(C(F)(C(F)(F)F)C(F)(F)F)cnc1-n1cc(-c2ccc(Cl)c(C(=O)NC3CC3)c2)cn1 (stereo not drawn) [I-T3-157, 2-Chloro-N-cyclopropyl-5-{1-[3-(ethylsulphinyl)-5-(1,1,1,2,3,3,3-heptafluoropropan-2-yl)pyridin-2-yl]-1H-pyrazol-4-yl}benzamide]	3.79
NNc1c(Cl)cc(C(O)(C(F)(F)F)C(F)(F)F)cc1Cl [2-(3,5-dichloro-4-hydrazinophenyl)-1,1,1,3,3,3-hexafluoropropan-2-ol]	1.92
Cc1cc(C(F)(C(F)(F)F)C(F)(F)F)cc(Br)c1N [2-bromo-6-methyl-4-heptafluoroisopropylaniline]	4.38

same assay, conditions: reversed-phase HPLC column (C18), HPLC-MS method a), reversed-phase column (C18); read-out: logP^a)

Structure (SMILES)	chromatographic logP
CCSc1cc(C(F)(C(F)(F)F)C(F)(F)F)cnc1-n1cc(-c2ccc(Cl)c(C(=O)NC3CC3)c2)cn1 [I-T3-156, 2-Chloro-N-cyclopropyl-5-{1-[3-(ethylsulphanyl)-5-(1,1,1,2,3,3,3-heptafluoropropan-2-yl)pyridin-2-yl]-1H-pyrazol-4-yl}benzamide]	4.7
CC[S+]([O-])c1cc(C(F)(C(F)(F)F)C(F)(F)F)cnc1-n1cc(-c2ccc(Cl)c(C(=O)NC3CC3)c2)cn1 (stereo not drawn) [I-T3-157, 2-Chloro-N-cyclopropyl-5-{1-[3-(ethylsulphinyl)-5-(1,1,1,2,3,3,3-heptafluoropropan-2-yl)pyridin-2-yl]-1H-pyrazol-4-yl}benzamide]	3.8

same assay, conditions: reversed-phase HPLC column (C18), HPLC-MS, reversed-phase column (C18); read-out: log P

Structure (SMILES)	chromatographic logP
CCSc1cc(C(F)(C(F)(F)F)C(F)(F)F)cnc1-n1cc(-c2ccc(Cl)c(C(=O)NC3CC3)c2)cn1 [I-T3-156, 2-Chloro-N-cyclopropyl-5-{1-[3-(ethylsulphanyl)-5-(1,1,1,2,3,3,3-heptafluoropropan-2-yl)pyridin-2-yl]-1H-pyrazol-4-yl}benzamide]	4.7
CC[S+]([O-])c1cc(C(F)(C(F)(F)F)C(F)(F)F)cnc1-n1cc(-c2ccc(Cl)c(C(=O)NC3CC3)c2)cn1 (stereo not drawn) [I-T3-157, 2-Chloro-N-cyclopropyl-5-{1-[3-(ethylsulphinyl)-5-(1,1,1,2,3,3,3-heptafluoropropan-2-yl)pyridin-2-yl]-1H-pyrazol-4-yl}benzamide]	3.8
